Experimental data taken from patent US8354403B2, “Pyrrolidine derived beta 3 adrenergic receptor agonists” (Merck Sharp & Dohme Corp., priority 2009, dated 2013).
Like-named read-outs stand apart in the source and are kept apart here.

Biological target: T1, human β3 adrenergic receptor (Homo sapiens, UniProt P13945)
T1 construct: expressed in transfected cells; host or cells: Chinese hamster ovary (CHO) cells, stably transfected
Assay: Beta-3 agonist in vitro functional assay: cAMP production (LANCE TR-FRET) in CHO cells stably transfected with the cloned β3 receptor
Format: cell-based
Outline: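 CHO cells stably expressing the cloned receptor, in HEPES-buffered HBSS with BSA and 0.6 mM IBMX, 6,000 cells/well, exposed to compound for 30 min at RT. cAMP read by LANCE TR-FRET against a cAMP standard curve. Isoproterenol defines maximal stimulation.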

[1] = Table 10, Beta-3 agonist in vitro functional assay, read-out: Human β3 agonist functional activity
[2] = Table 9, Beta-3 agonist in vitro functional assay, read-out: Human β3 agonist functional activity
[3] = Table 5, cAMP, CHO cells, read-out: Human β3 agonist functional activity
[4] = Table 4, cAMP, CHO cells, read-out: Human β3 agonist functional activity
[5] = given as a range, cAMP, CHO cells, read-out: human β3 functional activity
[6] = Table 11, cAMP, CHO cells, read-out: Human β3 agonist functional activity
[7] = Table 8, Beta-3 agonist in vitro functional assay, read-out: Human β3 agonist functional activity
[8] = Table 12, human β3 functional activity given as ranges, read-out: Human β3 agonist functional activity
[9] = Table 7, cAMP, CHO cells, ranges as given for Tables 6 and 7, read-out: Human β3 agonist functional activity

T1 sequence (P13945 whole entry): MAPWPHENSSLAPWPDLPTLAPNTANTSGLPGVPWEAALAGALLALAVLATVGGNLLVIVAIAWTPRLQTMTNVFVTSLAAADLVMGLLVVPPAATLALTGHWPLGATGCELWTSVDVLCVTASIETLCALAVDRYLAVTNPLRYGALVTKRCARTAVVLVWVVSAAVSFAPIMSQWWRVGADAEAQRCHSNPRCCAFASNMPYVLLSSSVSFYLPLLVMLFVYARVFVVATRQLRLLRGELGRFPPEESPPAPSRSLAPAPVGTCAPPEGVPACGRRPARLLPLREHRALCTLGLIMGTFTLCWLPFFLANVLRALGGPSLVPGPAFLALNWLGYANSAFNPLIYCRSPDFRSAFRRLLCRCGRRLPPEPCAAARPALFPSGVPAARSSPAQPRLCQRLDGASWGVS

## CC(C(=O)NCC1CCC1)N1CCN(C(=O)c2ccc(C[C@@H]3CC[C@H]([C@H](O)c4ccccc4)N3)cc2)CC1 (stereo partly drawn) [Example 452]
[1]
  EC50: 1 to 9.9 nM

## COc1cccnc1CN1CCN(C(=O)c2ccc(C[C@@H]3CC[C@H]([C@H](O)c4ccccc4)N3)cc2)CC1 [Example 414]
[2]
  EC50: 10 to 99.9 nM

## CC(C(=O)N1C[C@H](F)[C@@H](F)C1)N1CCN(C(=O)c2ccc(C[C@@H]3CC[C@H]([C@H](O)c4ccccc4)N3)cc2)CC1 (stereo partly drawn) [Example 476]
[1]
  EC50: 10 to 99.9 nM

## CC(C)CN(C)C(=O)C(C)N1CCN(C(=O)c2ccc(C[C@@H]3CC[C@H]([C@H](O)c4ccccc4)N3)cc2)CC1 (stereo partly drawn) [Example 518]
[1]
  EC50: 100 to 999 nM

## CC(C)[C@@H](C)NC(=O)C(C)N1CCN(C(=O)c2ccc(C[C@@H]3CC[C@H]([C@H](O)c4ccccc4)N3)cc2)CC1 (stereo partly drawn) [Example 441]
[1]
  EC50: 10 to 99.9 nM

## O=C(c1ccc(C[C@@H]2CC[C@H]([C@H](O)c3ccccc3)N2)cc1)N1CCC(S(=O)(=O)CC(F)(F)F)CC1 [Example 125]
[3]
  EC50: 10 to 99.9 nM

## C[C@@H]1CN(C(=O)c2ccc(C[C@@H]3CC[C@H]([C@H](O)c4ccccc4)N3)cc2)CC[C@@H]1n1cccn1 [Example 60]
[4]
  EC50: 10 to 99.9 nM

## O=C(c1ccc(C[C@@H]2CC[C@H]([C@H](O)c3ccccc3)N2)cc1)N1CC2CC(n3cccn3)CC2C1 (stereo partly drawn) [Example 1, (R)-phenyl[(2R,5S)-5-(4-{[5-(1H-pyrazol-1-yl)hexahydrocyclopenta[c]pyrrol-2(1H)-yl]carbonyl}benzyl)pyrrolidin-2-yl]methanol]
[5]
  EC50: 10 to 99.9 nM

## CC1(O)CCN(C(=O)c2ccc(C[C@@H]3CC[C@H]([C@H](O)c4ccccc4)N3)cc2)C1 (stereo partly drawn) [Example 12]
[4]
  EC50: 100 to 999 nM

## C[C@H]1CN(Cc2ccccn2)CCN1C(=O)c1ccc(C[C@@H]2CC[C@H]([C@H](O)c3ccccc3)N2)cc1 [Example 530]
[6]
  EC50: 10 to 99.9 nM

## CC(C(=O)N1C[C@@H]2C[C@H]1CO2)N1CCN(C(=O)c2ccc(C[C@@H]3CC[C@H]([C@H](O)c4ccccc4)N3)cc2)CC1 (stereo partly drawn) [Example 500]
[1]
  EC50: 10 to 99.9 nM

## O=C(c1ccc(C[C@@H]2CC[C@H]([C@H](O)c3ccccc3)N2)cc1)N1CCC2(CCCC2O)CC1 (stereo partly drawn) [Example 314]
[7]
  EC50: 100 to 999 nM

## CC(c1ncco1)N1CCN(C(=O)c2ccc(CC3CCC(C(O)c4ccccc4)N3)cc2)CC1 (single isomer, unassigned) [Example 584]
[8]
  EC50: 10 to 99.9 nM

## CS(=O)(=O)C1CCN(C(=O)c2ccc(C[C@@H]3CC[C@H]([C@H](O)c4ccccc4)N3)cc2)CC1 [Example 122]
[3]
  EC50: 10 to 99.9 nM

## CC(C(=O)NCC(C)(C)O)N1CCN(C(=O)c2ccc(C[C@@H]3CC[C@H]([C@H](O)c4ccccc4)N3)cc2)CC1 (stereo partly drawn) [Example 443]
[1]
  EC50: 10 to 99.9 nM

## O=C(c1ccc(C[C@@H]2CC[C@H]([C@H](O)c3ccccc3)N2)cc1)N1CCC(c2nc(-c3cccnc3)no2)CC1 [Example 82]
[3]
  EC50: 100 to 999 nM

## O=C(O)c1ccccc1N1CCN(C(=O)c2ccc(C[C@@H]3CC[C@H]([C@H](O)c4ccccc4)N3)cc2)CC1 [Example 350]
[2]
  EC50: 100 to 999 nM

## COC(=O)c1cccnc1N1CCN(C(=O)c2ccc(C[C@@H]3CC[C@H]([C@H](O)c4ccccc4)N3)cc2)CC1 [Example 366]
[2]
  EC50: 10 to 99.9 nM

## CC(C(=O)NC1CCS(=O)(=O)CC1)N1CCN(C(=O)c2ccc(C[C@@H]3CC[C@H]([C@H](O)c4ccccc4)N3)cc2)CC1 (stereo partly drawn) [Example 469]
[1]
  EC50: 10 to 99.9 nM

## CC(C(=O)NCC1CC1(C)C)N1CCN(C(=O)c2ccc(C[C@@H]3CC[C@H]([C@H](O)c4ccccc4)N3)cc2)CC1 (stereo partly drawn) [Example 450]
[1]
  EC50: 10 to 99.9 nM

## O=C(c1ccc(C[C@@H]2CC[C@H]([C@H](O)c3ccccc3)N2)cc1)N1CCCC(c2nc3ccccc3[nH]2)C1 (stereo partly drawn) [Example 34]
[4]
  EC50: 100 to 999 nM

## N#CC1(c2cccnn2)C2CN(C(=O)c3ccc(C[C@@H]4CC[C@H]([C@H](O)c5ccccc5)N4)cc3)CC21 (stereo partly drawn) [Example 236]
[9]
  EC50: 10 to 99.9 nM

## CC(c1cccnn1)N1CCN(C(=O)c2ccc(CC3CCC(C(O)c4ccccc4)N3)cc2)CC1 (single isomer, unassigned) [Example 592]
[8]
  EC50: 100 to 999 nM

## CN(C)C(=O)CN1CCN(C(=O)c2ccc(C[C@@H]3CC[C@H]([C@H](O)c4ccccc4)N3)cc2)CC1 [Example 389]
[2]
  EC50: 100 to 999 nM

## O=C1CCC2(CCN(C(=O)c3ccc(C[C@@H]4CC[C@H]([C@H](O)c5ccccc5)N4)cc3)CC2)O1 [Example 273]
[7]
  EC50: 10 to 99.9 nM

## CC1C(=O)c2cc(S(C)(=O)=O)ccc2OC12CCN(C(=O)c1ccc(C[C@@H]3CC[C@H]([C@H](O)c4ccccc4)N3)cc1)CC2 (stereo partly drawn) [Example 335]
[7]
  EC50: 10 to 99.9 nM

## CC(C)Oc1cccnc1CN1CCN(C(=O)c2ccc(C[C@@H]3CC[C@H]([C@H](O)c4ccccc4)N3)cc2)CC1 [Example 415]
[2]
  EC50: 10 to 99.9 nM

## N#CC1(c2cnccn2)C2CN(C(=O)c3ccc(C[C@@H]4CC[C@H]([C@H](O)c5ccccc5)N4)cc3)CC21 (stereo partly drawn) [Example 235]
[9]
  EC50: 10 to 99.9 nM

## CC(C(=O)N1[C@H]2CC[C@@H]1CC2)N1CCN(C(=O)c2ccc(C[C@@H]3CC[C@H]([C@H](O)c4ccccc4)N3)cc2)CC1 (stereo partly drawn) [Example 501]
[1]
  EC50: 100 to 999 nM

## CC(C(=O)N1CCSC1)N1CCN(C(=O)c2ccc(C[C@@H]3CC[C@H]([C@H](O)c4ccccc4)N3)cc2)CC1 (stereo partly drawn) [Example 481]
[1]
  EC50: 100 to 999 nM

## O=C(c1ccc(C[C@@H]2CC[C@H]([C@H](O)c3ccccc3)N2)cc1)N1CCN(C2(c3ccccn3)CC2)CC1 [Example 420]
[2]
  EC50: 100 to 999 nM

## O=C1NCC2(CCN(C(=O)c3ccc(C[C@@H]4CC[C@H]([C@H](O)c5ccccc5)N4)cc3)CC2)O1 [Example 272]
[7]
  EC50: 100 to 999 nM

## CC(c1nnco1)N1CCN(C(=O)c2ccc(C[C@@H]3CC[C@H]([C@H](O)c4ccccc4)N3)cc2)CC1 (stereo partly drawn) [Example 421]
[2]
  EC50: 10 to 99.9 nM

## O=C1Nc2ncccc2C2(CCN(C(=O)c3ccc(C[C@@H]4CC[C@H]([C@H](O)c5ccccc5)N4)cc3)CC2)O1 [Example 330]
[7]
  EC50: 10 to 99.9 nM

## CC(=O)N1CCN(C(=O)c2ccc(C[C@@H]3CC[C@H]([C@H](O)c4ccccc4)N3)cc2)CC1 [Example 343]
[2]
  EC50: 100 to 999 nM

## C[C@@H]1CN(C(=O)c2ccc(C[C@@H]3CC[C@H]([C@H](O)c4ccccc4)N3)cc2)C[C@H](C)N1Cc1ccccn1 [Example 533]
[6]
  EC50: 100 to 999 nM

## O=C(c1ccc(CC2CCC(C(O)c3ccccc3)N2)cc1)N1CCN(C2CCc3cccnc32)CC1 (single isomer, unassigned) [Example 598]
[8]
  EC50: 1 to 9.9 nM

## O=C(c1ccc(C[C@@H]2CC[C@H]([C@H](O)c3ccccc3)N2)cc1)N1CCC2(CCOC2)CC1 [Example 311]
[7]
  EC50: 100 to 999 nM

## COc1ccc2c(c1)C(=O)CC1(CCCN(C(=O)c3ccc(C[C@@H]4CC[C@H]([C@H](O)c5cccnc5)N4)cc3)C1)O2 (stereo partly drawn) [Example 42]
[4]
  EC50: 100 to 999 nM

## CC(C)NC(=O)C(C)N1CCN(C(=O)c2ccc(C[C@@H]3CC[C@H]([C@H](O)c4ccccc4)N3)cc2)CC1 (stereo partly drawn) [Example 437]
[1]
  EC50: 100 to 999 nM

## O=C(c1ccc(C[C@@H]2CC[C@H]([C@H](O)c3ccccc3)N2)cc1)N1CCC2(CCOC2=O)C1 (stereo partly drawn) [Example 13]
[4]
  EC50: 10 to 99.9 nM

## O=C(c1ccc(C[C@@H]2CC[C@H]([C@H](O)c3ccccc3)N2)cc1)N1CCC(n2cncn2)CC1 [Example 92]
[3]
  EC50: 10 to 99.9 nM

## CCCN(CCC)C(=O)CC1(c2ccccc2)CCN(C(=O)c2ccc(C[C@@H]3CC[C@H]([C@H](O)c4ccccc4)N3)cc2)CC1 [Example 248]
[7]
  EC50: 100 to 999 nM

## CC(C(=O)N1CCc2cnccc2C1)N1CCN(C(=O)c2ccc(C[C@@H]3CC[C@H]([C@H](O)c4ccccc4)N3)cc2)CC1 (stereo partly drawn) [Example 508]
[1]
  EC50: 10 to 99.9 nM

## O=C(c1ccc(C[C@@H]2CC[C@H]([C@H](O)c3ccccc3)N2)cc1)N1CCC2c3cccnc3OC2C1 (stereo partly drawn) [Example 58]
[4]
  EC50: 10 to 99.9 nM

## O=C(c1ccc(C[C@@H]2CC[C@H]([C@H](O)c3cccnc3)N2)cc1)N1CCC(S(=O)(=O)c2ccccc2F)CC1 [Example 133]
[3]
  EC50: 10 to 99.9 nM

## CC(c1ccccn1)N1CCN(C(=O)c2ccc(CC3CCC(C(O)c4ccccc4)N3)cc2)CC1 (stereo not drawn) [Example 430]
[2]
  EC50: 1 to 9.9 nM

## O=C1CC2(CCN(C(=O)c3ccc(C[C@@H]4CC[C@H]([C@H](O)c5cccnc5)N4)cc3)CC2)Sc2ccccc21 [Example 327]
[7]
  EC50: 10 to 99.9 nM

## O=C(c1ccc(C[C@@H]2CC[C@H]([C@H](O)c3ccccc3)N2)cc1)N1CCC(c2ncc(-c3ccccc3)[nH]2)CC1 [Example 79]
[3]
  EC50: 100 to 999 nM

## O=C(c1ccc(C[C@@H]2CC[C@H]([C@H](O)c3ccccc3)N2)cc1)N1CCN(C(=O)c2ccccn2)CC1 [Example 348]
[2]
  EC50: 10 to 99.9 nM

## O=C(c1ccc(C[C@@H]2CC[C@H]([C@H](O)c3ccccc3)N2)cc1)N1CCC(COc2ccncn2)CC1 [Example 162]
[3]
  EC50: 10 to 99.9 nM

## CC(C(=O)N1CCC1)N1CCN(C(=O)c2ccc(C[C@@H]3CC[C@H]([C@H](O)c4ccccc4)N3)cc2)CC1 (stereo partly drawn) [Example 471]
[1]
  EC50: 1 to 9.9 nM

## CC1(Cc2ccc(F)cc2)CC2(CCN(C(=O)c3ccc(C[C@@H]4CC[C@H]([C@H](O)c5ccccc5)N4)cc3)CC2)OC1=O (stereo partly drawn) [Example 278]
[7]
  EC50: < 1 nM

## O=C(c1ccc(C[C@@H]2CC[C@H]([C@H](O)c3ccccc3)N2)cc1)N1CCN(c2nccnc2Cl)CC1 [Example 371]
[2]
  EC50: 100 to 999 nM

## CCOC(=O)C1(F)CCCN(C(=O)c2ccc(C[C@@H]3CC[C@H]([C@H](O)c4ccccc4)N3)cc2)C1 (stereo partly drawn) [Example 37]
[4]
  EC50: 100 to 999 nM

## C[C@@H](c1ccccn1)N1CCN(C(=O)c2ccc(C[C@@H]3CC[C@H]([C@H](O)c4ccccc4)N3)cc2)CC1 [Example 431]
[2]
  EC50: 10 to 99.9 nM

## O=C(c1ccc(C[C@@H]2CC[C@H]([C@H](O)c3ccccc3)N2)cc1)N1CCC(c2cscn2)CC1 [Example 66, (R)-phenyl[(2R,5S)-5-(4-{[4-(1,3-thiazol-4-yl)-piperidin-1-yl]carbonyl}benzyl)pyrrolidine-2-yl]methanol]
[5]
  EC50: 10 to 99.9 nM
